Measurements as given in patent US20050234076A1, “Triazolopyrimidines” (priority 2002, published 2005).

How the values were obtained:
Type in all cases: in vivo
Alternaria solani = test: Alternaria Test (tomato)/protective; settings: tomato plants, protective spray, 750 g/ha, evaluation 7 days after inoculation; 100% = no infection
Protocol: Alternaria Test (tomato)/protective Solvent: 49 parts by weight of N,N-dimethylformamide Emulsifier: 1 part by weight of alkylaryl polyglycol ether To produce a suitable preparation of active compound, 1 part by weight of active compound is mixed with the stated amounts of solvent and emulsifier, and the concentrate is diluted with water to the desired concentration. […] The plants then remain at 96% relative atmospheric humidity and at a temperature of 20° C.

Pyricularia oryzae = settings: rice plants, protective spray, 500 g/ha, evaluation 7 days after inoculation; 100% = no infection
Venturia inaequalis = test: Venturia Test (apple)/protective; settings: 240 h, apple plants, protective spray, evaluation 10 days after inoculation, 100% = no infection, read-out: Efficacy in %
Protocol: Venturia Test (apple)/protective Solvents: 24.5 parts by weight of acetone • 24.5 parts by weight of dimethylacetamide Emulsifier: 1.0 parts by weight alkylaryl polyglycol ether To produce a suitable preparation of active compound, 1 part by weight of active compound is mixed with the stated amounts of solvent and emulsifier, and the concentrate is diluted with water to the desired concentration. To test for protective activity, young plants are sprayed with the preparation of active compound at the stated application rate. […] The plants are then placed in a greenhouse at about 21° C. and a relative atmospheric humidity of about 90%.

| SMILES | pest or weed control at 100 g/ha (Venturia inaequalis) [%] | further results |
| --- | --- | --- |
| Fc1cc(F)c(-c2c(Cl)nc3ncnn3c2N2CCC=N2)c(F)c1 [drawing 103] |  | Efficacy in % (Alternaria solani): 95% |
| Fc1cc(F)c(-c2c(Cl)nc3ncnn3c2N2Cc3ccccc3CO2)c(F)c1 [drawing 100] |  | Efficacy in % (Alternaria solani): 100% |
| Fc1ccc(-c2c(Cl)nc3ncnn3c2N2CCCCO2)c(Cl)c1 [drawing 102] |  | Efficacy in % (Alternaria solani): 100% |
| Fc1ccc(-c2c(Cl)nc3ncnn3c2N2CCCCO2)c(Cl)c1 [drawing 104] |  | Efficacy in % (Pyricularia oryzae): 100% |
| Fc1cccc(F)c1-c1c(Cl)nc2ncnn2c1N1CCCCO1 [drawing 57] | 100 |  |
| CC1CCON1c1c(-c2c(F)cccc2Cl)c(Cl)nc2ncnn12 (stereo not shown) [drawing 59] | 100 |  |
| Clc1ccc(-c2c(Cl)nc3ncnn3c2N2CCCCN2)c(Cl)c1 [drawing 69] | 95 |  |
| Fc1cc(F)c(-c2c(Cl)nc3ncnn3c2N2NC3CCC2C3)c(F)c1 (stereo not shown) [drawing 65] | 93 |  |
| Fc1cccc(Cl)c1-c1c(Cl)nc2ncnn2c1N1OC2CCC1C2 (stereo not shown) [drawing 58] | 100 |  |
| CC1CCON1c1c(-c2c(F)cc(F)cc2F)c(Cl)nc2ncnn12 (stereo not shown) [drawing 55] | 100 |  |
| Clc1ccccc1-c1c(Cl)nc2ncnn2c1N1OC2CCC1C2 (stereo not shown) [drawing 56] | 99 |  |
| Fc1cccc(Cl)c1-c1c(Cl)nc2ncnn2c1N1CCCCN1 [drawing 49] | 100 |  |
| Fc1cc(F)c(-c2c(Cl)nc3ncnn3c2N2Cc3ccccc3CO2)c(F)c1 [drawing 45] | 100 |  |
| Fc1cc(F)c(-c2c(Cl)nc3ncnn3c2N2OC3CCC2C3)c(C(F)(F)F)c1 (stereo not shown) [drawing 53] | 100 |  |
| Fc1cc(F)c(-c2c(Cl)nc3ncnn3c2N2CCCCO2)c(F)c1 [drawing 101] |  | Efficacy in % (Alternaria solani): 100% |
| Fc1ccc(-c2c(Cl)nc3ncnn3c2N2CCCCO2)c(Cl)c1 [drawing 47] | 100 |  |
| Fc1ccc(-c2c(Cl)nc3ncnn3c2N2CCCCO2)c(F)c1 [drawing 105] |  | Efficacy in % (Pyricularia oryzae): 100% |
| Fc1ccc(-c2c(Cl)nc3ncnn3c2N2OC3CCC2C3)c(Cl)c1 (stereo not shown) [drawing 62] | 100 |  |
| CC1CCCON1c1c(-c2ccccc2Cl)c(Cl)nc2ncnn12 (stereo not shown) [drawing 61] | 99 |  |
| Fc1cccc(F)c1-c1c(Cl)nc2ncnn2c1N1CCCCN1 [drawing 67] | 96 |  |
| Fc1cc(F)c(-c2c(Cl)nc3ncnn3c2N2OC3CCC2C3)c(F)c1 (stereo not shown) [drawing 51] | 100 |  |
| Fc1cc(C(F)(F)F)cc(F)c1-c1c(Cl)nc2ncnn2c1N1CCCCN1 [drawing 70] | 100 |  |
| CC1C=CCN(c2c(-c3c(F)cc(F)cc3F)c(Cl)nc3ncnn23)O1 (stereo not shown) [drawing 50] | 100 |  |
| Fc1cccc(Cl)c1-c1c(Cl)nc2ncnn2c1N1NC2CCC1C2 (stereo not shown) [drawing 66] | 100 |  |
| Fc1cc(F)c(-c2c(Cl)nc3ncnn3c2N2CCCCO2)c(F)c1 [drawing 46] | 100 |  |
| Fc1cc(F)c(-c2c(Br)nc3ncnn3c2N2CCCCN2)c(F)c1 [drawing 71] | 93 |  |
| Clc1cccc(Cl)c1-c1c(Cl)nc2ncnn2c1N1CCCCN1 [drawing 64] | 99 |  |
| Fc1cccc(Cl)c1-c1c(Cl)nc2ncnn2c1N1CCCCN1 [drawing 106] |  | Efficacy in % (Pyricularia oryzae): 100% |
